Consider 2 molecules from patent US12268683B2, “Compounds and methods for synergistic activation of M channels” (THE REGENTS OF THE UNIVERSITY OF CALIFORNIA, priority 2018, dated 2025).

The target in one data set is KCNA1 (Homo sapiens, UniProt Q09470). Kind of data set: TEVC of KCNA1 expressed in Xenopus oocytes. The class given is cell-based. The text has this: cRNA transcripts encoding human KCNA1, KCNQ1, KCNQ2, KCNQ3, KCNQ4, or KCNQ5 were generated by in vitro transcription using the T7 polymerase message machine kit (Thermo Fisher Scientific), after vector linearization, from cDNA sub-cloned into plasmids incorporating X. laevis β-globin 5′ and 3′ UTRs flanking the coding region to enhance translation and cRNA stability. cRNA was quantified by spectrophotometry. Mutant cDNAs were generated by site-directed mutagenesis using a QuikChange kit according to manufacturer's protocol (Stratagene, San Diego, Calif.) and corresponding cRNAs prepared as above. Defolliculated stage V and VI X. laevis oocytes (Ecocyte Bioscience, Austin, Tex.) were injected with Kv channel a subunit cRNAs (10 ng total per oocyte). […]
TEVC recording was performed at room temperature with an OC-725C amplifier (Warner Instruments, Hamden, Conn.) and pClamp10.2 software (Molecular Devices, Sunnyvale, Calif.) 3-5 days after cRNA injection as described in the section above. […] Currents were recorded in response to pulses between −80 and +40 mV at 20 mV intervals, or a single pulse to +40 mV, from a holding potential of −80 mV, to yield current-voltage relationships, current magnitude, and for quantifying activation rate. […]

In data set [1] the test system is pentylene tetrazole-induced seizures. Kind of data set: PTZ chemoconvulsant assay. The class given is in vivo, mouse. Conditions: for clonic seizure incidence: alone. The text has this:
We compared anticonvulsant activities of test compounds in male C57BL/6 mice (Charles River) aged 2-3 months. Mice were housed and used according to the recommendations in the Guide for the Care and Use of Laboratory Animals of the National Institutes of Health (NIH Publication, 8th edition, 2011). The study protocol was approved by the Institutional Animal Care and Use Committee of University of California, Irvine, which confirmed that all relevant ethical regulations were adhered to. Chemicals were sourced from Sigma (St. Louis, Mo., USA). A pentylene tetrazole (PTZ) chemoconvulsant assay was used-. […] Following the PTZ injection, mice were caged individually and an observer (GWA) blinded to the drug used recorded, over 20 min, clonic and tonic seizure incidence, and seizure-related mortality.
We quantified the anticonvulsant activities of (E)-2-dodecenal and tridecanal in male C57BL/6 mice (Charles River, Wilmington, Mass.) aged 2-3 months. The mice were housed and used according to the recommendations in the Guide for the Care and Use of Laboratory Animals of the National Institutes of Health (NIH Publication, 8th edition, 2011). The study protocol was approved by the Institutional Animal Care and Use Committee of University of California, Irvine. The chemicals were sourced from Sigma (St. Louis, Mo., USA). We used a pentylene tetrazole (PTZ) chemoconvulsant assay as we previously described (30). We injected the mice intraperitoneally with (E)-2-dodecenal (2 or 20 mgkg^−1) (with or without 2.5 mgkg^−1 XE991) or tridecanal (20 mgkg^−1) solubilized in PBS, or vehicle control (PBS), and then 30 minutes later we injected mice intraperitoneally with 80 mgkg-PTZ. Following the PTZ injection, the mice were caged individually and an observer (GWA) blinded to the experimental condition timed the latency to first seizure.
We compared anticonvulsant activities of 3FMSG in male C57BL/6 mice (Charles River) aged 2-3 months. Mice were housed and used according to the recommendations in the Guide for the Care and Use of Laboratory Animals of the National Institutes of Health (NIH Publication, 8th edition, 2011). The study protocol was approved by the Institutional Animal Care and Use Committee of University of California, Irvine, which confirmed that all relevant ethical regulations were adhered to. Chemicals were sourced from Sigma (St. Louis, Mo., USA). We used a pentylene tetrazole (PTZ) chemoconvulsant assay as we previously described^27. Mice were injected intraperitoneally with 3FMSG (5 mg kg^−1) or vehicle control (PBS) and then 30 minutes later injected intraperitoneally with 80 mg kg^−1 PTZ. Following the PTZ injection, mice were caged individually and an observer (GWA) blinded to the drug used recorded seizure activity over 20 minutes.

For data set [2] the following is noted: humans; cited from earlier work.

KCNA1, sequence (Q09470 whole entry): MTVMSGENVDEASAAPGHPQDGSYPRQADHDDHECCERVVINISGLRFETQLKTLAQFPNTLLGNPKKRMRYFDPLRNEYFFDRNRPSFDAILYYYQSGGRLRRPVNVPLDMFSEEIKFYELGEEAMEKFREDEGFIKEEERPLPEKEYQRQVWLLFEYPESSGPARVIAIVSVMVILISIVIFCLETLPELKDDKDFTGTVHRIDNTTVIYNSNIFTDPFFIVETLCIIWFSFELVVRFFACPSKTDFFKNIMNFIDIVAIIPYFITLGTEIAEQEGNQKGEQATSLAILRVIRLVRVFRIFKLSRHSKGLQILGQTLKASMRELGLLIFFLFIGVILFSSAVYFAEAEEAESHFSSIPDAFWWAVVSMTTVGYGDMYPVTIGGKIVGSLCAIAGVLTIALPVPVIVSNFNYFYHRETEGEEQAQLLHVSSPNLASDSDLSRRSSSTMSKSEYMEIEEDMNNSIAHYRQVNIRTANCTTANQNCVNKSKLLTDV

For `CC(C)CC(=O)O` [IVA, isovaleric acid], the “effect on KCNA1 (in words)” value on KCNA1 is listed as “did not alter currents”. Further, the clonic seizure incidence entry in data set [1] (10 mg/kg i.p.) was “neither compound reduced clonic seizures alone”; in data set [1] (20 mg/kg i.p.) it was “no effect”. In data set [1] (individually), the “suppression of PTZ-induced tonic seizures” value is listed as “ineffective”.

Turning to `CC(C)CC(N)=O` [Isovaleramide, isovaleramide], in data set [2], the “mean Tmax” value was 30 to 45 min and the well tolerated dose result was “at least 2400 mg per day”.
